In patent US7932261B2, “Macrocycle derivatives useful as inhibitors of β-secretase (BACE)” (Janssen Pharmaceutica NV, priority 2006, dated 2011):

Columns and labels:
Type in all cases: biochemical
β-secretase (BACE) [1] = molecular target: T1, β-secretase (BACE) (Homo sapiens, UniProt P56817); assay: in vitro BACE FS1 % Inhibition Assay (Example 13); conditions: FS1 substrate, pH 5; for % Inhibition (Example 13) @ 0.3 μM / inhibition at 0.3 µM: 0.3 μM compound; for % Inhibition (Example 13) @ 1 μM / inhibition at 1 µM: 1 μM compound; for % Inhibition (Example 13) @ 3 μM / inhibition at 3 µM: 3 μM compound; for inhibition at 0.3 µM: read-out: % Inhibition (Example 13) @ 0.3 μM; for inhibition at 1 µM: read-out: % Inhibition (Example 13) @ 1 μM; for inhibition at 3 µM: read-out: % Inhibition (Example 13) @ 3 μM
T1 construct: purchased Panvera
T1 sequence (P56817 46-501): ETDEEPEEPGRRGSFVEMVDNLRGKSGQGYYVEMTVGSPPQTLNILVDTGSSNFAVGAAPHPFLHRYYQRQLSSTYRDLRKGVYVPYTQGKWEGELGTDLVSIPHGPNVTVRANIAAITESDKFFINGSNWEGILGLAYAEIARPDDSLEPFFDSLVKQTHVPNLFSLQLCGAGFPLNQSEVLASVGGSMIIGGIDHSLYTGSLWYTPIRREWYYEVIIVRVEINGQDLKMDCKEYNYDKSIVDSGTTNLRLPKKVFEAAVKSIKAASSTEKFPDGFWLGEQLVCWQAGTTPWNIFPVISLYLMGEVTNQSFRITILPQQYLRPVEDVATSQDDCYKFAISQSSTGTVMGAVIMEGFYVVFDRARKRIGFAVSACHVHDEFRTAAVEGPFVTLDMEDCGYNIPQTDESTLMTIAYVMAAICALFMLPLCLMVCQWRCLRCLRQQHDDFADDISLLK
Experimental: (§1) The following assay buffers were prepared and used in this assay: (1) enzyme assay buffer (0.05 M sodium acetate, pH5, 0.1% PEG8000 (w/v)), (2) substrate assay buffer (0.05 M sodium acetate, pH5), and (3) compound vehicle (30% DMSO in 50 mM HEPES, pH 7.4).
(§2) The FS1-substrate stock solution was prepared in DMSO as a 10 mg/mL solution. The FS1-substrate working solution was prepared by diluting the 10 mg/mL stock solution with substrate assay buffer to a final concentration of 300 μg/mL. The α-secretase (BACE) working solution was prepared by diluting a 0.83 mg/mL BACE stock solution with enzyme assay buffer to a final concentration of 4 μg/mL.
Test compounds were dissolved in DMSO to 10 mM.
(§3) The screening procedure for this assay was as follows: 15 μL of BACE working solution was pipetted into each well of a 96-well plate. To each well was then pipetted 2 μL of test compound at the selected concentration. Test compound and BACE were then mixed with a pipettor and incubated for 20 min at room temperature. To each well was then added 10 µL of the FS1 substrate working solution. The plates were then incubated for 1 hour at room temperature.
The procedure for the blank (negative control) was as follows. 15 μL of assay buffer was pipetted into each well to be used as a blank control. To each well was then added 2 μL of vehicle and 10 μL of FS1-substrate working solution. The plates were then incubated for 1 hour at room temperature.
(§4) The procedure for the positive control was as follows: 15 μL of BACE working solution was pipetted into each well to be used as a positive control. To each well was then pipetted 2 μL of vehicle. Vehicle and BACE were then mixed with a pipettor and incubated for 20 min at room temperature. To each well was then added 10 μL of the FS1 substrate working solution. The plates were then incubated for 1 hour at room temperature.
For test compounds, % inhibition was determined at each concentration as follows: […]

β-secretase (BACE) [2] = molecular target: T1, β-secretase (BACE); assay: in vitro BACE Assay, Ki (Example 14)
Experimental: as §1
as §2, with “β-secretase” for “α-secretase”
Test compounds were dissolved in DMSO at 10 mM.
as §3, with “The” for “The screening”, “μL” for “µL”, “solution.” for “solution. The plates were then incubated for 1 hour at room temperature.”
as §4, with “solution.” for “solution. The plates were then incubated for 1 hour at room temperature.”
For test compounds, Ki inhibition was determined as follows: For each compound concentration and positive control, rate of cleavage of substrate (Vi, where i=compound concentration in μM) was determined as Δ Fluorescence/Δ time (min). Cleavage rates (Vi) were plotted as a function of inhibitor concentration in μM [I]. The Ki was then determined by fitting the following equation to the graph of [I] vs. Vi Y=aVmax/(50+24*(1+X/Ki)),

human BACE-1 = human BACE-1 (Homo sapiens, UniProt P56817); assay: in vitro BACE Assay run by CEREP (Example 15); conditions: recombinant enzyme, pH 4.5, 60 min at 37° C.; for IC50: read-out: IC50
human BACE-1, sequence (P56817 46-501): as above
Experimental: More specifically the assay, run at 50 μL in a 96 well plate, evaluated the effect of test compound on the activity of the human BACE-1 quantified by measuring the formation of Mca-S-E-V—N-L-NH2 from Mca-S-E-V—N-L-D-A-E-F—R—K(Dnp)-R—R—NH2, using a recombinant enzyme.
The test compound, reference compound or water (control) was added to a buffer containing 0.09 M sodium acetate (pH 4.5) and 0.25 μg BACE-1. Compound interference with the fluorimetric detection method due to autofluorescence was then checked by measurements at the wavelengths defined to evaluate the enzyme activity. […] For control basal measurement, the substrate was omitted from the reaction mixture. […] The standard inhibitory reference compound was OM99-2, which was tested in each experiment at several concentrations to obtain an inhibition curve from which its IC50 value was calculated.

| SMILES | % Inhibition (Example 13) @ 0.3 μM (β-secretase (BACE) [1]) [%] | % Inhibition (Example 13) @ 1 μM (β-secretase (BACE) [1]) [%] | % Inhibition (Example 13) @ 3 μM (β-secretase (BACE) [1]) [%] | Ki (β-secretase (BACE) [2]) [nM] | inhibition at 0.3 µM (β-secretase (BACE) [1]) [%] | inhibition at 1 µM (β-secretase (BACE) [1]) [%] | inhibition at 3 µM (β-secretase (BACE) [1]) [%] | other results |
| --- | --- | --- | --- | --- | --- | --- | --- | --- |
| CCOC(=O)C1CCC(N2CCc3cccc(c3)Oc3ccc4c(c3)CN(C(N)=N4)C(C(C)C)CCC2=O)CC1 (stereo not drawn) [Compound 22] |  |  |  | 750 | 25 | 48 | 83 |  |
| NC1=Nc2ccc3cc2CN1CCCNC(=O)Cc1cccc(c1)O3 [Compound 12] | −18 | −0.4 | 11 |  |  |  |  |  |
| CC(C)[C@@H]1CCC(=O)N([C@H]2CC[C@@H](C(=O)O)CC2)CCc2cccc(c2)Oc2ccc3c(c2)CN1C(N)=N3 [Compound 23] |  |  |  | 13 | 106 | 108 | 114 |  |
| CC(C)[C@@H]1CCC(=O)N(C2CCCCC2)C2CCc3ccc(cc32)Oc2ccc3c(c2)CN1C(N)=N3 (stereo partly drawn) [Compound 36] |  |  |  |  |  |  |  | % Inhibition 0.3 μM (human BACE-1; 0.3 μM compound): 74%; IC50 (human BACE-1): 150 nM |
| NC1=Nc2ccc3cc2CN1CCN(C(=O)C1CCCCC1)CCCc1cccc(c1)O3 [Compound 10] | −9 | 5 | 7 |  |  |  |  |  |
| NC1=Nc2ccc3cc2CN1[C@@H](C1CCCCC1)CNC(=O)CCc1cccc(c1)O3 [Compound 16] | 39 | 37 | 61 |  |  |  |  |  |
| CC(C)[C@@H]1CC(=O)N(C2CCCCC2)CCCc2cccc(c2)Oc2ccc3c(c2)CN1C(N)=N3 [Compound 3] | 9 | 7 | 29 |  |  |  |  |  |
| NC1=Nc2ccc3cc2CN1CCNC(=O)CCC/C=C/c1ccccc1-3 [Compound 11] |  |  |  |  | -12 | 23 | 65 |  |
| Nc1nc2ccc3cc2cc1C(C1CCCCC1)C/C=C/C(=O)N(C1CCCCC1)CCc1cccc(c1)O3 (stereo not drawn) [Compound 39] |  |  |  |  |  |  |  | inhibition at 1 µM (human BACE-1; 1 μM compound): 53%; IC50 (human BACE-1): 810 nM |
| NC1=Nc2ccc3cc2CN1CCCNC(=O)CCc1cccc(c1)O3 [Compound 7] |  |  |  |  |  |  |  | % Inhibition (Example 13) @ 0.3 μM (β-secretase (BACE) [1]; 0.3 µM): 39%; % Inhibition (Example 13) @ 1 μM (β-secretase (BACE) [1]; 1 µM): 36%; % Inhibition (Example 13) @ 3 μM (β-secretase (BACE) [1]; 3 µM): 37% |

Second part, led by results:

| % Inhibition (Example 13) @ 0.3 μM (β-secretase (BACE) [1]) [%] | % Inhibition (Example 13) @ 1 μM (β-secretase (BACE) [1]) [%] | % Inhibition (Example 13) @ 3 μM (β-secretase (BACE) [1]) [%] | Ki (β-secretase (BACE) [2]) [nM] | inhibition at 0.3 µM (β-secretase (BACE) [1]) [%] | inhibition at 1 µM (β-secretase (BACE) [1]) [%] | inhibition at 3 µM (β-secretase (BACE) [1]) [%] | SMILES | other results |
| --- | --- | --- | --- | --- | --- | --- | --- | --- |
| 14 | 16 | −15 |  |  |  |  | CC(C)[C@@H]1CCC(=O)Nc2ccc3ccc(cc3c2)Oc2ccc3c(c2)CN1C(N)=N3 [Compound 31] |  |
|  |  |  | 44 | 65 | 99 | 111 | CC(C)[C@@H]1CCC(=O)N(CCCO)CCc2cccc(c2)Oc2ccc3c(c2)CN1C(N)=N3 [Compound 25] |  |
|  |  |  | 44 | 100 | 115 | 120 | NC1=Nc2ccc3cc2CN1CCCCC(=O)N(C1CCCCC1)CCCc1cccc(c1)O3 [Compound 4] |  |
|  |  |  | 400 | 35 | 55 | 93 | NC1=Nc2ccc3cc2CN1[C@@H](C1CCCCC1)CCCN(C1CCCCC1)CCCc1cccc(c1)O3 [Compound 19] |  |
| −8 | 23 | 58 |  |  |  |  | CC(C)C1CCC(=O)N(C2CCC(O)CC2)CCc2cccc(c2)Oc2ccc3c(c2)CN1C(N)=N3 (stereo not drawn) [Compound 26] |  |
